The nature of data set [1]: Stability in mouse liver microsomes. Particulars: 1 μM; for CLHep / CLin vivo / ER: mouse liver microsomes; for ER: slow ER < 0.3, moderate 0.3 < ER < 0.7, fast ER > 0.7; for microsomal CLint at 1 μM / half-life at 1 μM: pH 7.4, mouse liver microsomes 0.5 mg/mL, 37° C.; for microsomal CLint at 1 μM: read-out: CLint; for half-life at 1 μM: read-out: T1/2. The data set is classed as in vitro ADME. How it is done: (§1) Objective: To evaluate the stability of the compounds of the present invention in human and mouse liver microsomes by LC-MS/MS.
(§2) The ratio of the sample peak area to the internal standard peak area was obtained by LC/MS/MS, and the content of the compounds at 0 min was regarded as 100%, and the relative content of the compounds at each time point was calculated. The half-life of the compound was calculated by plotting the “relative content of the compound” against the “incubation time”, and the intrinsic clearance was calculated, in which the half-life and intrinsic clearance of the compound in human and mouse liver microsomes were determined in Table 3 and Table 4, respectively.

The next data set can be described thus: in vivo. Conditions: BALB/c, mouse, 2 mg/kg. More on the design: species or system BALB/c mice. How it is done: The inventors performed a pharmacokinetic evaluation of the compounds of the present invention in mice.
The compound of the present invention was in the form of a solution of 5% DMSO+30% PEG400+65% Saline, 10% DMSO+10% Kolliphor HS15+80% Saline, 10% DMSO+89%(25% SBE-B-CD)+(2% HCl), 20% PEG400+80% sterilize water for injection or 10% DMA+10% HS15+30% PEG400+50% sterilize water for injection, the test animals were administered, and the animals were fasted for 12 h before administration, and water was free to drink. The test animals were administered intravenously at a dose of 2 mg/kg, blood (approximately 0.15 mL) was taken intravenously at the following time points after administration: 0.083 h, 0.25 h, 0.5 h, 1.0 h, 2.0 h, 5.0 h, 7.0 h, and 24 h, EDTA-K2 was pre-added as an anticoagulant in the blood collection tube, the blood samples were centrifuged at 12,000 rpm for 2 min, then plasma was collected and stored at −20° C. or −70° C.
The plasma samples collected above were treated (after the frozen plasma thawed at room temperature, vortexed for 15 s for mixing, 10-20 μL of plasma was taken and added with 120-150 μL of acetonitrile solution containing internal standard, the mixture was vortexed for 5 min for mixing, then centrifuged at 4,000 rpm for 5 min, 100 μL of supernatant was taken, and 120-150 μL of methanol/water (v/v=1/1) was added to mix), and the compound concentration in plasma was analyzed by LC-MS/MS. The pharmacokinetic parameters of the compounds of the present invention for intravenous administration in mice are shown in Table 5.

A short description of data set [2]: Stability in human liver microsomes. The data set is classed as in vitro ADME. Particulars: 1 μM; for CLHep / predicted in vivo clearance / ER: human liver microsomes; for ER: slow ER < 0.3, moderate 0.3 < ER < 0.7, fast ER > 0.7; for microsomal CLint at 1 μM / half-life at 1 μM: pH 7.4, human liver microsomes 0.5 mg/mL, 37° C.; for microsomal CLint at 1 μM: read-out: CLint; for half-life at 1 μM: read-out: T1/2. As to the method: as §1, §2

The next data set has as its system intracellular pERK. Nature of the data set: Inhibitory effect on intracellular pERK, In-Cell Western, AGS cells. The data set is classed as cell-based. Conditions: Homo sapiens, read-out: Inhibitory effect on intracellular pERK, IC50.
The target in a further data set is KRAS G12D-GTP & SOS1 (Homo sapiens (Human), UniProt P01116, G12D). In words: KRAS G12D/SOS1 binding experiment (HTRF). Conditions: competitive binding.
The target of another data set is KRAS G12D-GTP & cRAF (Homo sapiens (Human), UniProt P01116, G12D). In words: KRAS G12D/cRAF binding experiment (HTRF). Conditions: competitive binding.

pIC50: −log10 of the molar value. Read-outs that look alike come from different tables or passages of the source.

Chain of KRAS G12D-GTP & SOS1 (P01116-2 other isoform, or with tags, fused parts or gaps G12D): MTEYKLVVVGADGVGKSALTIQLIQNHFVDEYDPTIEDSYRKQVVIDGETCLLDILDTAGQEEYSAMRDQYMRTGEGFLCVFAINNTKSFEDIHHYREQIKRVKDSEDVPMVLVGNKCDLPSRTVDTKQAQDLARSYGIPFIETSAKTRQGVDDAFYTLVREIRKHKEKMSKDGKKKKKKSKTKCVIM
Chain of KRAS G12D-GTP & cRAF (P01116-2 other isoform, or with tags, fused parts or gaps G12D): as above

In the case of `C#Cc1c(F)ccc2cc(O)cc(-c3nc(C#C)c4c(N5CC6CCC(C5)N6)nc(OC[C@@]56CCCN5C[C@H](F)C6)nc4c3F)c12` [Compound 23], in data set [1], the CLHep was found to be 187.4 mL/min/kg, the CLin vivo turned out to be 60.8 mL/min/kg, the ER is 0.68 and the microsomal CLint at 1 μM was determined as 47.6 µL/min/mg. Also, in data set [1], the half-life at 1 μM is 29.1 min. In “in vivo” (mice, intravenous, read-out: AUCINF), the AUC(0-inf) was 2160 ng·h/mL. In “in vivo” (mice, intravenous, read-out: AUClast), the AUC(0-t) turned out to be 2140 ng·h/mL. In “in vivo” (mice, intravenous, read-out: Cl), the clearance is 16 mL/min/kg. Besides, the Cmax in the data set “in vivo” (mice, intravenous, read-out: Cmax) stood at 3550 ng/mL. Also, the MRT last in “in vivo” (mice, intravenous, read-out: MRTlast) was found to be 42 min. Also, the half-life in “in vivo” (mice, intravenous, read-out: T1/2 (converted)) was 50.4 min. Besides, in “in vivo” (mice, intravenous, read-out: Tmax), the Tmax stood at 4.98 min. For the same compound, in “in vivo” (mice, intravenous, read-out: Vss), the Vd was found to be 0.69 L/kg. Also, in data set [2], the CLHep stood at 23.0 mL/min/kg, the “predicted in vivo clearance” value is listed as 10.9 mL/min/kg, the ER was found to be 0.53 and the microsomal CLint at 1 μM was determined as 18.4 µL/min/mg. In addition, the half-life at 1 μM in data set [2] was 75.3 min. Also, the pIC50 in the data set on intracellular pERK (AGS, 3 h) is 9.22.

Turning to `C#Cc1nc(-c2cc(O)cc3cccc(Cl)c23)c(F)c2nc(OC[C@@]34CCCN3C[C@H](F)C4)nc(N3CC4CCC(C3)N4)c12` [Compound 67], in data set [1], the CLHep was found to be 178.5 mL/min/kg, the CLin vivo is listed as 59.8 mL/min/kg, the ER was 0.66 and the microsomal CLint at 1 μM is 45.3 µL/min/mg. In addition, the half-life at 1 μM in data set [1] turned out to be 30.6 min. In “in vivo” (iv), this compound showed an AUC(0-inf) of 3230 ng·h/mL, an AUC(0-t) of 3210 ng·h/mL, a Cmax of 4300 ng/mL and an MRT last of 45 min. Moreover, in “in vivo” (iv), the Tmax came out at 4.98 min, the Vd came out at 0.5 L/kg, the clearance worked out at 10 mL/min/kg and the half-life was 52.2 min. Moreover, in data set [2], the CLHep turned out to be 14.5 mL/min/kg, the “predicted in vivo clearance” value is given as 8.5 mL/min/kg, the ER is 0.41 and the microsomal CLint at 1 μM amounted to 11.6 µL/min/mg. Also, the half-life at 1 μM in data set [2] turned out to be 119 min. This compound also showed a pIC50 at KRAS G12D-GTP & SOS1 of 7.87. For the same compound, the pIC50 at KRAS G12D-GTP & cRAF is 8.27. For the same compound, in the data set with intracellular pERK (AGS cells, 3 h incubation, In-Cell Western), the pIC50 was 9.40.

The values are drawn from patent publication US20250034169A1, “NOVEL PYRIMIDOPYRIDINE COMPOUND, PHARMACEUTICAL COMPOSITION THEREOF, AND USE THEREOF” (SUNSHINE LAKE PHARMA CO., LTD., priority 2021, published 2025).
